{"source": "paper PMC10535864", "about": "“Novel Aminopyrimidine-2,4-diones, 2-Thiopyrimidine-4-ones, and 6-Arylpteridines as Dual-Target Inhibitors of BRD4/PLK1: Design, Synthesis, Cytotoxicity, and Computational Studies” (Pharmaceuticals, 2023)", "key": {"[1]": {"target": "human recombinant PLK1 (Homo sapiens, UniProt P53350)", "sequence (P53350 whole entry)": "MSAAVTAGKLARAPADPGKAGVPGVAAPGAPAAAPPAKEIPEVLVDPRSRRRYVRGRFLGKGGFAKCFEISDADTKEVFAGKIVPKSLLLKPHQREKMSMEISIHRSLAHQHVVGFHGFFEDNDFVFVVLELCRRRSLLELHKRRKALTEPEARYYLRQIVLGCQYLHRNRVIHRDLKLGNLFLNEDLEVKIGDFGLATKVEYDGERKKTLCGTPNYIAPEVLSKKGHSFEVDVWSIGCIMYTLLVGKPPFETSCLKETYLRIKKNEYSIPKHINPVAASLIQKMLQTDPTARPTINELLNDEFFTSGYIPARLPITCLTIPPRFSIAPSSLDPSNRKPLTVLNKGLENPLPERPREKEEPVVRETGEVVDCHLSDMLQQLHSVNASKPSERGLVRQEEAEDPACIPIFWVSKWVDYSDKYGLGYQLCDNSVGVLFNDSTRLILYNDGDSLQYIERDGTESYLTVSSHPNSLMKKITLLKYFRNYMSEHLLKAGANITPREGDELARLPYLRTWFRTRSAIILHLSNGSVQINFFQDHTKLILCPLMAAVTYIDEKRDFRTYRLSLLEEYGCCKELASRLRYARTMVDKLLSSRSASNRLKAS", "assay": "PLK1 inhibitory activity assay (ADP-Glo Kinase Assay)", "format": "biochemical", "conditions": "for %inh: PLK1 Lab Report", "experimental": "The BRD4 and PLK1 inhibitory assays were carried out in vitro in accordance with the manufacturer’s instructions; BRD4 was assessed using AlphaLISA Bromodomain Assay Protocol, and PLK1 kinase was tested using the ADP-Glo™ Kinase Assay Protocol, as detailed in the Supplementary file. […]\n1.2.2. PLK1 inhibitory activity assay\nThe kinase reaction was performed with active human recombinant PLK1 and combined with the substrate dephosphorylated casein (positive control) using 1 X reaction buffer (40 mM Tris-HCl pH 7.4, 20 mM MgCl2, 0.1 mg/mL BSA, 1 mM DTT) and 20 μM ATP. The reaction was incubated at30°C for 45 minutes. The amount of ATP transferred was calculated using […] reagent from Promega according to the manufacturer’s instruction.\nA plate-reading luminometer isused to measure the luminescence. […]"}, "[2]": {"test_system": "MDA-MB-231 cells", "assay": "Cell cycle analysis, propidium iodide flow cytometry", "format": "cell-based", "conditions": "treated at IC50 concentration, 48 h, control 9.19%", "excerpt": "(§1) The results are indicated as a dot plot graph with four quadrant images (Figure 5B). […] However, both compounds also raised the necrotic percent by 1.8- and 2.8-fold, respectively, compared to non-treated cells. Overall, these findings implied that compound 7 could exert anticancer activity by producing cell cycle arrest at the G2/M phase and inducing apoptosis.\n(§2) An Epics XL-MCL™ Flow Cytometer and Flowing software 2012 were used to count and analyze stained cells. The Supplementary file contains detailed descriptions of the flow cytometric analysis of cell-cycle distribution and cellular apoptosis. […]\n(§3) 1.3.Cell cycle and apoptosis screening […]\n(§4) investigated using an Ab-139418 propidium iodide flow cytometry kit and an Annexin-V assay and biparametric cytofluorimetric analysis, respectively, as instructed by the manufacturer. IC50s of both 7 and […]\nCytometer and Flowing software were used to count and analyze stained cells. The Supplementary file contains detailed descriptions of the flow cytometric analysis of cell-cycle distribution and cellular apoptosis.\n1.3.1. Cell cycle analysis […]\na six-well plate containing MDA-MB-231 breast cancer cells was seeded with 1 X 10^5 cells per well and then […]\nFollowing that, cells were gathered and fixed in ice-cold 70% ethanol at 4 °C for 12 hours. The cells were then rinsed with cold Phosphate Buffer Saline (PBS) and incubated for 30 minutes at 37°C in 0.5 mL of PBS after the ethanol was removed. Propidium iodide was used to stain the cells for 30 min while they were in the dark. DNA content was determined using a flow cytometer. […]"}, "[3]": {"target": "T1, BRD4 (BD2) (Homo sapiens, UniProt O60885)", "T1 construct": "BRD4 (BD2) should be thawed on ice; purchased", "assay": "BRD4 inhibitory activity assay (AlphaLISA Bromodomain Assay)", "format": "binding", "method": "The BRD4 and PLK1 inhibitory assays were carried out in vitro in accordance with the manufacturer’s instructions; BRD4 was assessed using AlphaLISA Bromodomain Assay Protocol [67], and PLK1 kinase was tested using the ADP-Glo™ Kinase Assay Protocol [68], as detailed in the Supplementary file.\nThe BRD4 and PLK1 inhibitory assays were carried out in vitro in accordance with the manufacturer's instructions; BRD4 was assessed using AlphaLISA Bromodomain Assay Protocol [67], and PLK1 kinase was tested using the ADP-Glo™ Kinase Assay Protocol [68],\nThe master mixture was prepared as follows: N wells × (2.5 µL 3x BRD Homogeneous Assay Buffer 1 + 1 µL BET Bromodomain Ligand + 1.5 µL H2O). BRD4 (BD2) should be thawed on ice. Simply, the protein-containing tube was spined to recover the full content of the tube after the firstthaw. Both proteins should be aliquoted into single-use aliquots. Immediately, any remaining undiluted protein should be stored in aliquots at -80°C. BRD4 (BD2) was diluted in 1x BRD Homogeneous Assay Buffer 1 at 4 ng/µL. The diluted proteins were kept on ice until they were used. 5 µl of the master mixture is added to each well designated for the “Positive Control”, “Test Inhibitor”, and “Blank”. For the “Substrate Control”, 2.5 µL 3x BRD Homogeneous Assay Buffer 1 + 1 µL Non-acetylated Ligand 1 + 1.5 µL H2O is added. Each “Test Inhibitor” well received 2.5 µL of inhibitor solution, while the “Positive\nControl”, “Substrate Control”, and “Blank” wells received 2.5 µL of the same solution without inhibitor (inhibitor buffer). Then, the “Blank” well is filled with 2.5 µL of 1x BRD Homogeneous Assay Buffer 1. After that, GSH\n10 µL per well is added, the plate isshaken, and itis incubated at room temperature for 30 minutes. Streptavidin-\n10 µL is added per well and incubated at room temperature for further 15 – 30 minutes [67]. The Alpha counts were read using the EnVision® multimode plate reader with the standard Alpha detection settings."}, "[4]": {"test_system": "BAX gene in MDA-MB-231 cells", "assay": "RT-PCR gene expression, BAX", "format": "cell-based", "conditions": "48 h treatment, control = 1", "experimental": "(§5) As well, there was an apparent increase in caspase-3, showing 3.9-fold more expression than in control cells.\n(§6) Fluorometric analysis was used to gauge the level of these genes’ expression. The procedure for the used kit was carried out in accordance with the manufacturer’s instructions, which are detailed in the Supplementary file. […]\n(§7) […] at pH 7.4). The flow cytometer was then used to examine the cells […]\n(§8) 1.4.Estimation of apoptotic and anti-apoptotic gene markers […]\n(§9) such as Bax and caspase-3, as well as anti-apoptotic genes such as Bcl-2, was studied using the BIORAD iScriptTM One-Step RT-PCR kit with SYBR® Green. MDA-MB-231 cells were cultured before being treated for 48 hours […]\n(§10) Fluorometric analysis was used to gauge the level of these genes' expression. The procedure for the used kit was carried out in accordance with the manufacturer's instructions, which are detailed as follows:\n(§11) 1.4.1. RNA isolation and reverse transcription m RNA isolation iscarried out using an RNeasy extraction kit,up to 1 x 10^7 cells, depending on the cell line. Cells are disrupted in RNeasy Lysis Buffer (RLT buffer), homogenized, then ethanol is added to the lysate, creating conditions that promote selective binding of RNA to the RNeasy membrane. […]"}, "[5]": {"test_system": "Bcl-2 gene in MDA-MB-231 cells", "assay": "RT-PCR gene expression, Bcl-2", "format": "cell-based", "conditions": "48 h treatment, control = 1", "experimental": "as §5, §6, §7, §8, §9, §10, §11"}, "[6]": {"test_system": "caspase-3 gene in MDA-MB-231 cells", "assay": "RT-PCR gene expression, caspase-3", "format": "cell-based", "conditions": "48 h treatment, control = 1", "experimental": "as §5, §6, §7, §8, §9, §10, §11"}, "[7]": {"test_system": "MDA-MB-231 cells", "assay": "Apoptosis screening, annexin V-FITC/PI flow cytometry", "format": "cell-based", "conditions": "compared to non-treated control MDA-MB-231 cells", "excerpt": "as §1, §2, §3, §4\nCytometer and Flowing software were used to count and analyze stained cells. The Supplementary file contains detailed descriptions of the flow cytometric analysis of cell-cycle distribution and cellular apoptosis. […]\n1.3.2. Apoptosis screening […]\nplate received 1 X 105 conc. breast cancer (MDA-MB-231) cells that were then incubated for 24 hours. The cells […]\nwith PBS, and stained for 15 min at room temperature in the dark with annexin V-FITC and PI in binding buffer (10 […]\nµM HEPES, 140 µM NaCl, and 2.5 µM CaCl2 at pH 7.4). […]\nhigh-quality RNA iseluted in RNase-free water.\n1.4.2. Master mix preparation\nAll the following reagents were mixed together to give a totalvolume (50 μL). 2X SYBR® Green RT-PCR reaction mixture (25 μL), forward primer (10 μM) (1.5 μL), reverse primer (10 μM) (1.5 μL), nuclease-free H2O (11 μL), RNA template (1 pg to 100 ng totalRNA) (10 μL) and iScript reverse transcriptase for One-Step RT-PCR (1 μL).\n1.4.3. Amplification protocol\nIncubate complete reaction mixture in a real-time thermal detection system (Rotorgene) as follows: cDNA synthesis:\n10 min at 50 °C, iScript reverse transcriptase inactivation: 5 min at 95 °C, polymerase chain reaction (PCR) cycling and detection (30–45 cycles): 10 s at 95 °C and 30 s at 55 °C to 60 °C (data collection step) and melt curve analysis:\n1 min at95 °C and 1 min at55 °C and 10 s at55 °C (80 cycles, increasing each by 0.5 °C each cycle)."}}, "data": [{"smiles": "CC[C@@H]1C(=O)N(C)c2cnc(Nc3ccc(C(=O)N[C@H]4CC[C@H](N5CCN(CC6CC6)CC5)CC4)cc3OC)nc2N1C(C)C", "note": "[Volasertib, reference compound]", "values": [{"measurement": "%inh", "setting": "[1]; conc 0.01 (unit not given)", "result": 42, "unit": "%"}, {"measurement": "%inh", "setting": "[1]; conc 0.1 (unit not given)", "result": 58, "unit": "%"}, {"measurement": "%inh", "setting": "[1]; conc 1 (unit not given)", "result": 76, "unit": "%"}, {"measurement": "%inh", "setting": "[1]; conc 10 (unit not given)", "result": 91, "unit": "%"}, {"measurement": "%inh", "setting": "[1]; conc 100 (unit not given)", "result": 96, "unit": "%"}, {"measurement": "IC50", "setting": "[1]; mean of three independent experiments, read-out: PLK1 IC50 ± SD", "result": "0.025 ± 0.001", "unit": "µM"}, {"measurement": "DNA content % at cell cycle phase %G2/M", "setting": "[2]", "result": 17.38, "unit": "%"}, {"measurement": "IC50", "setting": "[3]", "result": "0.017 ± 0.001", "unit": "µM"}, {"measurement": "Gene expression BAX (apoptotic gene)", "setting": "[4]", "result": 5.332, "unit": "fold"}, {"measurement": "Gene expression Bcl-2 (anti-apoptotic gene)", "setting": "[5]", "result": 0.351, "unit": "fold"}, {"measurement": "Gene expression Caspase-3 (apoptotic gene)", "setting": "[6]", "result": 5.531, "unit": "fold"}, {"measurement": "elevation in the late apoptotic stage", "setting": "[7]", "result": "~110.2", "unit": "fold"}, {"measurement": "increase in early apoptosis", "setting": "[7]", "result": 24.4, "unit": "fold"}, {"measurement": "increase in total apoptosis", "setting": "[7]", "result": 16.3, "unit": "fold"}, {"measurement": "rise of necrotic percent", "setting": "[7]", "result": 2.8, "unit": "fold"}]}]}
